These results are taken from ChEMBL document CHEMBL1201862, “PubChem BioAssay data set” (2004).

Test systems include ACHN; CAKI-1; CCRF-CEM; DU-145; HCT-15; HOP-92; HT-29; NCI-H226; RXF 393; SF-295; SK-MEL-28; SK-OV-3; SNB-19; UO-31; DMS-273; LXFL 529; M19-MEL; SF-268; SN12C; XF498.
Common to all, as to assay: DTP human tumour cell line panel, 48 h

SMILES strings stand for the structures.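 Cells were grown in 96-well plates and exposed to each compound for 48 hours at five concentrations; endpoints were interpolated linearly between bracketing concentrations, or set to the highest concentration if not reached. GI50 is the concentration that inhibits growth by half.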 Active and inactive are the calls of the source. Cut-off read from the data, not from the text of the source: active = GI50 up to about 1.1 µM and inactive = higher.

With `CCOC(=O)c1csc(NC(=O)CN2CCN(C)CC2)n1`, the GI50 was > 100 µM (inactive) with ACHN; > 100 µM (inactive) with CAKI-1; > 100 µM (inactive) with CCRF-CEM; > 100 µM (inactive) with DU-145; over 100 µM in the assay on HCT-15; > 100 µM (inactive) with HOP-92. Further, the GI50 in the assay on HT-29, in the assay with NCI-H226, in the assay with RXF 393, in the assay on SF-295, in the assay on SK-MEL-28 and with SK-OV-3 was > 100 µM (inactive) in each case. Further, the GI50 in the assay with SNB-19 and in the assay with UO-31 was > 100 µM (inactive) in each case.
Turning to `CCOc1ccc(/N=N/c2ccc3oc(=O)c(/C(C)=N\NC(=O)CC(=O)Nc4ccc(Cl)cc4)cc3c2)cc1`, the GI50 with ACHN is 22.4 µM (inactive); with CAKI-1 it was > 100 µM (inactive); in the assay on CCRF-CEM, 0.337 µM (active); in the assay with DMS-273 it was 16.3 µM (inactive); with HCT-15, 6.25 µM; with HOP-92, 25.2 µM (inactive). Moreover, the GI50 in the assay with LXFL 529 was 10.8 µM (inactive); with M19-MEL it was 27.9 µM (inactive); in the assay with NCI-H226 it was 88.9 µM (inactive); with RXF 393, 14.2 µM (inactive); with SF-268, 19.6 µM (inactive); with SF-295, 16.5 µM (inactive). Also, the GI50 in the assay on SK-MEL-28 was 36.1 µM (inactive); in the assay with SK-OV-3, 19.9 µM (inactive); with SN12C it was 26.1 µM (inactive); in the assay with SNB-19 it was 27.3 µM (inactive); in the assay on UO-31, 12.2 µM (inactive); in the assay on XF498, 2.07 µM (inactive).
On to `CC(O)=C1C(=O)CCC1=O`, for which the GI50 with ACHN, with CAKI-1, in the assay with CCRF-CEM, in the assay with DU-145, in the assay with HOP-92 and in the assay on HT-29 was > 100 µM (inactive) in each case. Also, the GI50 with NCI-H226, in the assay with RXF 393, in the assay with SF-268, with SF-295, in the assay with SK-MEL-28 and in the assay on SK-OV-3 was > 100 µM (inactive) each time. The GI50 in the assay on SN12C, with SNB-19 and in the assay with UO-31 was > 100 µM (inactive) in each case.
As to `Cc1cc(C)n(-c2nsc3ccccc23)n1`, the GI50 with ACHN was > 100 µM (inactive); with CCRF-CEM, > 100 µM (inactive); in the assay on DMS-273, > 100 µM (inactive); in the assay on HCT-15 it was over 100 µM; with HOP-92, 80.5 µM (inactive); in the assay with HT-29, > 100 µM (inactive). Further, the GI50 in the assay on LXFL 529, in the assay on M19-MEL, in the assay with RXF 393, in the assay with SF-268, in the assay with SK-MEL-28 and in the assay with SN12C was > 100 µM (inactive) each time. The GI50 in the assay with SNB-19 and in the assay with UO-31 was > 100 µM (inactive) in each case.
With `CCOC(=O)C(NC(=O)CC)(Nc1ccccc1F)C(F)(F)F` (stereo not drawn), the GI50 in the assay with ACHN was 48.9 µM (inactive); with CAKI-1, > 100 µM (inactive); with DU-145, > 100 µM (inactive); with HCT-15 it was over 100 µM; in the assay with HOP-92, > 100 µM (inactive); in the assay with HT-29, > 100 µM (inactive). The GI50 with RXF 393, in the assay with SF-268, in the assay on SF-295, with SK-MEL-28, with SK-OV-3 and in the assay with SN12C was > 100 µM (inactive) throughout. Further, the GI50 in the assay on SNB-19 and in the assay with UO-31 was > 100 µM (inactive) throughout.
Turning to `O=C1N(Cc2ccccc2)C2CSCC2N1Cc1ccccc1` (stereo not drawn), the GI50 in the assay with ACHN was 49.2 µM (inactive); in the assay on CAKI-1 it was 30.8 µM (inactive); with CCRF-CEM it was 51.2 µM (inactive); in the assay on DU-145 it was 50.9 µM (inactive); in the assay with HOP-92 it was 23 µM (inactive); in the assay on HT-29 it was 16.7 µM (inactive). For the same compound, the GI50 with NCI-H226 is 24.1 µM (inactive); in the assay on RXF 393 it was 20.6 µM (inactive); in the assay on SF-268, 31.1 µM (inactive); with SF-295, 37.3 µM (inactive); with SK-MEL-28, 37.7 µM (inactive); in the assay with SK-OV-3 it was 27.4 µM (inactive). Also, the values for the GI50 with SN12C, in the assay with SNB-19 and in the assay on UO-31 were 33.7 µM (inactive), 63.2 µM (inactive) and 24 µM (inactive), respectively.
`CC(C)OP(=O)(OC(C)C)c1c(N)n[nH]c1Nc1ccccc1`: the GI50 was > 100 µM (inactive) in the assay on ACHN; > 100 µM (inactive) in the assay on CAKI-1; > 100 µM (inactive) in the assay with CCRF-CEM; > 100 µM (inactive) with DU-145; over 100 µM with HCT-15; > 100 µM (inactive) in the assay on HOP-92. Besides, the GI50 in the assay with HT-29, in the assay with NCI-H226, in the assay with RXF 393, with SF-268, in the assay on SF-295 and in the assay with SK-MEL-28 was > 100 µM (inactive) in each case. The GI50 with SK-OV-3, in the assay with SNB-19 and with UO-31 was > 100 µM (inactive) each time.
As for `CN1CCC23c4ccccc4NC1C21CCN(C)C3Nc2ccccc21`, the GI50 in the assay with CAKI-1 is 75.5 µM (inactive); with CCRF-CEM, 137 µM (inactive); in the assay on DMS-273 it was > 375 µM (inactive); in the assay on HCT-15 it was over 375 µM; in the assay with HOP-92 it was 94.6 µM (inactive); in the assay with HT-29 it was > 375 µM (inactive). For the same compound, the GI50 was > 375 µM (inactive) in the assay with M19-MEL; 206 µM (inactive) in the assay on NCI-H226; 152 µM (inactive) in the assay on RXF 393; 102 µM (inactive) in the assay on SF-268; > 375 µM (inactive) in the assay with SF-295; > 375 µM (inactive) in the assay with SK-MEL-28. In addition, the GI50 was > 375 µM (inactive) with SK-OV-3, > 375 µM (inactive) with SN12C, > 375 µM (inactive) in the assay with SNB-19 and > 301 µM (inactive) in the assay with UO-31.
Turning to `N=C(N)SCc1cccc([N+](=O)[O-])c1`, the GI50 in the assay with CAKI-1 was 24.4 µM (inactive); with CCRF-CEM, 27.7 µM (inactive); in the assay on DMS-273, 30.2 µM (inactive); with HCT-15 it was 34.5 µM; in the assay on HOP-92, 20.9 µM (inactive); with HT-29 it was 30.1 µM (inactive). For the same compound, the GI50 in the assay with M19-MEL is 35.3 µM (inactive); with NCI-H226, 24.3 µM (inactive); in the assay with RXF 393 it was 24.8 µM (inactive); in the assay on SF-268, 33 µM (inactive); in the assay with SF-295 it was 38.9 µM (inactive); with SK-MEL-28 it was 31.8 µM (inactive). For the same compound, the GI50 in the assay on SK-OV-3 was > 57.1 µM (inactive); in the assay on SN12C, 37 µM (inactive); in the assay on SNB-19, > 10 µM (inactive); with UO-31 it was 36.8 µM (inactive); in the assay with XF498 it was 25.1 µM (inactive).
Consider `COc1ccc(N2C(=O)C3c4[nH]c5ccccc5c4C4CCCCCCCCCC4C3C2=O)cc1` (stereo not drawn), for which the GI50 with ACHN was > 10 µM (inactive); with CAKI-1, > 10 µM (inactive); with CCRF-CEM, > 10 µM (inactive); with DU-145 it was > 10 µM (inactive); in the assay on HCT-15, over 10 µM; with HT-29, > 10 µM (inactive). Moreover, the GI50 in the assay with NCI-H226, in the assay on RXF 393, in the assay on SF-268, in the assay on SF-295, with SK-MEL-28 and in the assay on SK-OV-3 was > 10 µM (inactive) each time. In addition, the GI50 in the assay with SN12C, with SNB-19 and in the assay with UO-31 was > 10 µM (inactive) each time.
As to `O=C(NC(=O)c1cn(CCN2CCNCC2)c(=O)[nH]c1=O)OCc1ccccc1`, the GI50 in the assay on ACHN was > 100 µM (inactive); in the assay on CAKI-1 it was > 100 µM (inactive); in the assay with CCRF-CEM it was > 100 µM (inactive); in the assay with HCT-15, over 100 µM; in the assay on HOP-92, > 100 µM (inactive); in the assay with HT-29, > 100 µM (inactive). For the same compound, the GI50 with LXFL 529, in the assay with M19-MEL, in the assay with NCI-H226, with SF-268, in the assay on SF-295 and in the assay with SK-OV-3 was > 100 µM (inactive) throughout. For the same compound, the GI50 in the assay on SN12C was > 100 µM (inactive).
Consider `CCCCCCCCCCCCCCCCCCOCC(O)CO` (stereo not drawn) [BATILOL], for which the GI50 with CAKI-1 was 3.57 µM (inactive); in the assay on CCRF-CEM, 10.7 µM (inactive); in the assay on DMS-273, > 5.93 µM (inactive); with HCT-15, over 25 µM; in the assay on HOP-92, 11.7 µM (inactive); in the assay with HT-29, 14.5 µM (inactive). Further, the GI50 with M19-MEL was 12 µM (inactive); with NCI-H226, > 21.6 µM (inactive); with RXF 393, 16.7 µM (inactive); with SF-268, > 25 µM (inactive); with SF-295, 18.6 µM (inactive); in the assay with SK-MEL-28 it was > 25 µM (inactive). In addition, the GI50 with SK-OV-3 was > 23.5 µM (inactive); in the assay on SN12C, > 25 µM (inactive); in the assay with SNB-19 it was > 25 µM (inactive); in the assay on UO-31 it was 12.5 µM (inactive); in the assay on XF498, 15.5 µM (inactive).

What is called GI50 is the concentration giving 50% growth inhibition.
